Counter-ions that a name gives are not always drawn.

The target of this experiment is T1, type II phosphodiesterase (Rattus norvegicus, UniProt Q01062).
T1 construct: purified from rat heart muscle cells; from tissue; host or cells: rat heart, soluble fraction, Q Sepharose
T1 sequence (Q01062 1-928): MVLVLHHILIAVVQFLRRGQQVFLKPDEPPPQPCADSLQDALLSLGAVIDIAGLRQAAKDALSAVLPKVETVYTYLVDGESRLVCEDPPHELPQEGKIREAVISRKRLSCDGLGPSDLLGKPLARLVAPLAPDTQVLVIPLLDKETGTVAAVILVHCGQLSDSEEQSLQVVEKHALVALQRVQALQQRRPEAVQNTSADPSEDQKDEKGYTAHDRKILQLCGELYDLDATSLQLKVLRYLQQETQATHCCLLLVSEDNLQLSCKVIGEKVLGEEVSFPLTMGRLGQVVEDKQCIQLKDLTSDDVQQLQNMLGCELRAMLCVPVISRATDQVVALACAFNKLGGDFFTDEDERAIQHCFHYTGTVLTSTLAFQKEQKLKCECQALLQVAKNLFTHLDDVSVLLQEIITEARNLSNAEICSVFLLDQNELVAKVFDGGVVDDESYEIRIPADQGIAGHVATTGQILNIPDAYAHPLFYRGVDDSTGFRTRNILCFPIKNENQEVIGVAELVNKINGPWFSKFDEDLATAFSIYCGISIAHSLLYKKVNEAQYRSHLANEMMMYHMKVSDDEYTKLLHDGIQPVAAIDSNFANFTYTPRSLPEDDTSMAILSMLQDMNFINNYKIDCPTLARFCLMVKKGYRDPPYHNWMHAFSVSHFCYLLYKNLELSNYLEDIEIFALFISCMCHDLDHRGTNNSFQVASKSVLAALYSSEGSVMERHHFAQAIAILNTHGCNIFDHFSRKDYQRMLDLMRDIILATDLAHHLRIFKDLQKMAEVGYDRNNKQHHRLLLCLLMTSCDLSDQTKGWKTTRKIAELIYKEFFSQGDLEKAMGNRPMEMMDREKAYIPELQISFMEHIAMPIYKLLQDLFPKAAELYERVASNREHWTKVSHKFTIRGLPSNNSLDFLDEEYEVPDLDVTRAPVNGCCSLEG
As to the kind of experiment: Phosphodiesterase inhibition activity (in vitro), Type II. The experiment is classed as biochemical. As to conditions: Type II phosphodiesterase column. The source says: (A) In order to evaluate selectivity of the compounds of the present invention for type IV phosphodiesterase, types I, II, III and V phosphodiesterase isozymes were purified in the following manner.
1) Solutions containing various phosphodiesterase (types I, II and III) isozymes were purified from rat heart muscle cells in the following manner. Under ether anesthesia, Wistar rat was subjected to thoracotomy to excise the heart. After removing blood by perfusion with physiological saline supplemented with heparin (1 unit/ml), the heart was finely chopped with scissors. This was suspended in buffer A (20 mM Bis-Tris, 5 mM dithioerythritol, 2 mM EGTA and 50 mM sodium acetate, pH 6.5) containing a protease inhibitor (50 μM phenyl-methyl-sulfonyl-fluoride, 5 μM pepstatin A, 40 μM leupeptin, 20 μM aprotinin or 2 mM benzamidine) and then the cells were disrupted using polytron and sonicator and subjected to ultracentrifugation (4° C., 100,000×g, 60 minutes) to give a soluble fraction.
2) Solutions containing various phosphodiesterase isozymes were obtained from the thus obtained soluble fraction in the following manner. The thus, obtained soluble fraction was applied to a column of 1.6×10.0 cm packed with Q Sepharose which had been equilibrated with buffer A. Next, said column was washed with 300 ml of buffer A to remove non-absorbed protein. Phosphodiesterase was eluted with 200 ml of buffer A having 0.05 to 1.25M linear gradient of sodium acetate to collect about 40 fractions each containing 5.0 ml eluate. Each fraction was checked for cAMP- and cGMP-metabolizing phosphodiesterase activities. Of these fractions, a fraction having only cAMP-metabolizing activity and showing disappearance of the metabolizing activity by 0.1 μM cilostamide (a type III phosphodiesterase selective inhibitor) was used as the type III phosphodiesterase. […] These fractions were separately collected to be used as phosphodiesterase (types I, II and III) stock solutions for the examination of selectivity. p1 3) A solution containing type V phosphodiesterase was prepared from peripheral blood of a healthy person in the following manner. A 200 ml portion of physiological saline supplemented with dextran (3%) was added to 500 ml of heparinized peripheral blood and incubated at 37° C. for 40 minutes to effect precipitation of erythrocytes. The supernatant fluid after precipitation of erythrocytes was recovered and centrifuged once, and the resulting precipitate was suspended in buffer B (140 mM NaCl, 5 mM KCl, 5 mm glucose and 10 mM HEPES, pH 7.4), overlaid on a solution for density gradient centrifugation use (Ficoll solution) and then centrifuged at room temperature for 40 minutes at 450×g, thereby separating monocyte fraction and granulocyte fraction. The granulocyte fraction was washed once with buffer C (140 mM NaCl, 5 mM KCl, 1 mM CaCl2, 1 mM MgCl2, 5 mM glucose and 10 mM HEPES, pH 7.4) and suspended in buffer D (20 mM Bis-Tris, 5 mM dithioerythritol, 2 mM EGTA and 50 mM sodium acetate, pH 6.5) containing a protease inhibitor (40 μM leupeptin, 5 μM pepstatin A, 20 μM aprotinin, 50 μM phenyl-methyl-sulfonyl-fluoride or 2 mM benzamidine) and then the cells were disrupted using polytron and sonicator and subjected to ultracentrifugation (4° C., 100,000×g, 60 minutes) to give a soluble fraction.
(B) Inhibitory activities were measured using the thus obtained stock solutions of various phosphodiesterase isozymes.
1) A predetermined amount of each compound to be tested was subjected to 10 minutes of reaction at 30° C. in a reaction mixture containing 40 mM Tris-HCl (pH 8.0), 5 mM MgCl2, 4 mM 2-mercaptoethanol, 10 μM rolipram (a type IV phosphodiesterase selective inhibitor), 1 μM cAMP, 10 nM ^3 H-cAMP (in the case of type V phosphodiesterase, 1 μM cAMP and 10 nM ^3 H-cAMP are replaced by 1 μM cGMP and 100 nM ^3 H-cGMP) and each of the isozyme stock solutions. […]
Usually IC50 stands for the concentration needed to halve the response being measured. Low readings indicate greater potency in that assay, high ones weaker potency in that assay. For `CCc1cc(C)c2c(-c3cccc(Br)c3)cc(=O)n(CC)c2n1` [Example 31, 4-(3-bromophenyl)-1,7-diethyl-5-methyl-1,8-naphthyridin-2(1H)-one], the IC50 is greater than 30 µM. In the case of `CCc1cc(C)c2c(-c3ccccc3)cc(=O)n(C)c2n1` [Example 26, 7-Ethyl-1,5-dimethyl-4-phenyl-1,8-naphthyridin-2(1H)-one], half-maximal inhibition (IC50) was put at 30 µM. In turn, `CCCn1c(=O)cc(-c2cccc(Br)c2)c2c(C)cc(CC)nc21` [Example 33, 4-(3-Bromophenyl)-7-ethyl-5-methyl-1-propyl-1,8-naphthyridin-2(1H)-one] came in with a half-inhibitory concentration (IC50) of 35.4 µM. The result for `CCc1cc(C)c2c(-c3cccc(Cl)c3)cc(=O)n(C)c2n1` [Example 27, 4-(3-Chlorophenyl)-7-ethyl-1,5-dimethyl-1,8-naphthyridin-2(1H)-one] reads 25.6 µM.

As for `CCc1cc(C)c2c(-c3cccc(Cl)c3)cc(=S)n(C)c2n1` [Example 43, 4-(3-chlorophenyl)-7-ethyl-1,5-dimethyl-1,8-naphthyridine-2(1H)-thione], the concentration for half-maximal inhibition (IC50) is greater than 30 µM. To `CCn1c(=O)cc(-c2ccccc2)c2c(C)cc(C)nc21` [Example 38, 1-Ethyl-5,7-dimethyl-4-phenyl-1,8-naphthyridin-2(1H)-one] belongs 26.1 µM; to `CCc1cc(C)c2c(-c3cccc(Cl)c3)cc(=O)n(C3CC3)c2n1` [Example 35, 4-(3-Chlorophenyl)-1-cyclopropyl-7-ethyl-5-methyl-1,8-naphthyridin-2(1H)-on], 22.3 µM.

As for `CCn1c(=O)cc(-c2cccc(Br)c2)c2c(C)cc(C)nc21` [Example 30, 4-(3-Bromophenyl)-1-ethyl-5,7-dimethyl-1,8-naphthyridin-2(1H)-one], the IC50 turned out to be 10.5 µM. Consider `Cc1cc(C)c2c(-c3cccc(Cl)c3)cc(=O)n(C)c2n1` [Example 24, 4-(3-chlorophenyl)-1,5,7-trimethyl-1,8-naphthyridin-2(1H)-one], for which the IC50 was found to be 51.8 µM.

As for `CCn1c(=O)cc(-c2cccc(Cl)c2)c2cccnc21` [Example 15, 4-(3-Chlorophenyl)-1-ethyl-1,8-naphthyridin-2(1H)-one], it took 20.8 µM to reach half-maximal inhibition (IC50). To `CCc1cc(C)c2c(C3CCCCC3)cc(=O)n(CC)c2n1` [Example 49, 4-cyclohexyl-1,7-diethyl-5-methyl-1,8-naphthyridin-2(1H)-one] belongs 22.8 µM; to `CCn1c(=O)cc(C2CCCCC2)c2cccnc21` [Example 46, 4-cyclohexyl-1-ethyl-1,8-naphthyridin-2(1H)-one 0.45 hydrochloride 0.25 hydrate], greater than 30 µM. Take `CCc1cc(C)c2c(-c3ccccc3)cc(=O)n(CC)c2n1` [Example 40, 1,7-Diethyl-5-methyl-4-phenyl-1,8-naphthyridin-2(1H)-one]: the IC50 worked out at 20.5 µM. On to `CCn1c(=O)cc(-c2cccc(Cl)c2)c2c(C)cc(C)nc21` [Example 29, 4-(3-Chlorophenyl)-1-ethyl-5,7-dimethyl-1,8-naphthyridin-2(1H)-one], for which the IC50 amounted to 15.5 µM.
